Source: the METLIN SMRT retention time set (Domingo-Almenara et al. 2019)

Experiment: gradient 5% acetonitrile 3 min, to 50% in 2 min, to 85% in 15 min, held 3 min, 100 µL/min
Settings: column: Zorbax Extend-C18 2.1 x 50 mm; eluents: water / acetonitrile, 0.1% formic acid
Method in brief: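 A Zorbax Extend-C18 column (2.1 × 50 mm, 1.8 μm) run at 100 μL/min with water and acetonitrile, both containing 0.1% formic acid, separated mixtures of ~100 pure standards. The HPLC was coupled to a quadrupole time-of-flight mass spectrometer operated in positive and negative ionization mode, with dead and dwell volumes of 40 μL and 900 μL. Each retention time was taken from a computationally picked adduct peak that was then manually inspected.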
Compound `O=C(CN1C(=O)CSc2ccc(C(=O)N3CCCC3)cc21)N1CCN(c2ncccn2)CC1` has an RP-LC retention time of 661 s.
For `CCOc1ccccc1NC(=O)c1cnc2c(c1)c(=O)n(C)c(=O)n2-c1ccccc1`, the RP-LC retention time was 961 s.
Compound `Cc1cccc(Oc2nccnc2N2CCC(C(=O)NCCC3=CCCCC3)CC2)c1` has an RP-LC retention time of 1130 s.
`CCc1ccc(CNC(=S)Nc2ccc3nc(N4CCN(C)CC4)cc(C)c3c2)cc1` showed an RP-LC retention time of 641 s.
For `Cc1ccc(S(=O)(=O)N2C[C@@H]3C[C@H](NC(=O)c4cccnc4)[C@H]2C3)cc1C`, the RP-LC retention time was 724 s.
For `CN1CCN(c2ccc(-c3nc(-c4cccc(F)c4)no3)cn2)CC1`, the RP-LC retention time was 685 s.
For `Cc1nn(CC(=O)Nc2ccccc2C(F)(F)F)c(C)c1[N+](=O)[O-]`, the RP-LC retention time was 792 s.
Compound `CCCn1c(CCNC(=O)c2ccccc2)nc2cccnc21` has an RP-LC retention time of 633 s.
`CCc1ccc(-c2ccc(-n3nc(C)c(S(=O)(=O)N4CCCC4)c3C)nn2)cc1` gave an RP-LC retention time of 1170 s.
In the case of `CCN(CCNC(=O)CCc1cc2ccc(C)cc2[nH]c1=O)Cc1ccccc1`, the RP-LC retention time is reported as 639 s.
Compound `CCCC(NC(=O)c1ccc(N(C)C)cc1)C(=O)Nc1nc2ccccc2[nH]1` (centres undefined) has an RP-LC retention time of 706 s.
`Cc1nc2cc(-c3noc(/C=C/c4ccco4)n3)ccc2o1` showed an RP-LC retention time of 1010 s.
`CCOc1ccc(NC(=O)Cn2c(=O)cc(-c3nc(CC)no3)c3ccccc32)cc1` gave an RP-LC retention time of 936 s.
Work on `CC1CCN(S(=O)(=O)c2nn(Cc3ccccn3)cc2C(=O)O)CC1` yielded an RP-LC retention time of 721 s.
`COc1cccc(C(=O)N2CCN(c3cc(-c4cccs4)[nH]n3)CC2)c1OC` gave an RP-LC retention time of 722 s.
`Cc1ccc(-c2nnc(N3CCC(C(=O)NCCN4CCCCC4C)CC3)o2)cc1` (centres undefined) gave an RP-LC retention time of 624 s.
For `Cc1nc(C)c(C(=O)N2CC(Oc3cccc(-c4nc(-c5ccccc5)no4)c3)C2)s1`, the RP-LC retention time was 1110 s.
In the case of `O=C(O)c1cnc(N2CCOCC2)nc1-c1ccccn1`, the RP-LC retention time is reported as 604 s.
Compound `Cc1noc(C)c1CC(=O)NCc1nnc2n1CCCC2` has an RP-LC retention time of 559 s.
Compound `CCOc1ccccc1NC(=O)Cn1cnc2nc(N3CCC(C(=O)NC4CC4)CC3)sc2c1=O` has an RP-LC retention time of 696 s.
With `O=C(Cn1nc2nc(Nc3ccc(F)cc3)ccn2c1=O)NCC1CCCO1` (centres undefined) the RP-LC retention time was 637 s.
Compound `O=S(=O)(c1ccc2c(c1)CCCC2)N1CCN(c2ccc(-c3ccco3)nn2)CC1` has an RP-LC retention time of 903 s.
In the case of `Cc1ccc(-c2nnc(-c3ccc(Cl)c(S(=O)(=O)N(C)C)c3)o2)cc1`, the RP-LC retention time is reported as 1040 s.
For `CC(C)NC(=O)c1ccc(-c2nc3cc(NS(=O)(=O)c4cc(F)ccc4F)ccc3n2C)cc1`, the RP-LC retention time was 705 s.
For `COc1cccc(CNC(=O)C2(C)CCCN(C(=O)Nc3ccccc3C(F)(F)F)C2)c1` (centres undefined), the RP-LC retention time was 934 s.
In the case of `COc1cccc(CNC(=O)C2CCCN(c3nnc(C)c4c(C)n(-c5ccccc5)nc34)C2)c1` (centres undefined), the RP-LC retention time is reported as 715 s.
Compound `CCCn1cc(C(=O)NC(C)c2cccnc2)c2cccnc21` (centres undefined) has an RP-LC retention time of 597 s.
`O=C(NCCCN1CCN(c2ccccc2F)CC1)C1CCCN(c2nc3cccnc3s2)C1` (centres undefined) showed an RP-LC retention time of 652 s.
`COc1ccc(-c2nnc(-c3cccc([N+](=O)[O-])c3)o2)cc1` gave an RP-LC retention time of 898 s.
In the case of `COc1ccccc1OCCNC(=O)c1ccc2[nH]c3c(c2c1)CN(C(C)=O)CC3`, the RP-LC retention time is reported as 680 s.
In the case of `CCOc1cccc(-c2noc(Cn3ccnc3CC)n2)c1`, the RP-LC retention time is reported as 668 s.
For `COc1ccc(-c2cc3c(=O)n(Cc4noc(CN5CCCC(C)C5)n4)ccn3n2)cc1` (centres undefined), the RP-LC retention time was 675 s.
`Cc1oc(-c2[nH]ncc2C(=O)N2CCCC2)cc1S(=O)(=O)N1CCN(CC(C)C)CC1` showed an RP-LC retention time of 580 s.
With `CCCNC(=O)CN1CCN(C(=O)c2sc3ncccc3c2-n2cccc2)CC1` the RP-LC retention time was 620 s.
Compound `Cc1ccc(NC(=O)N2CCC(n3c(-c4ccco4)nc4cccnc43)C2)cc1` (centres undefined) has an RP-LC retention time of 776 s.
`Cc1cc(C)c2sc(N(CCCn3ccnc3)C(=O)C3COc4ccccc4O3)nc2c1` (centres undefined) showed an RP-LC retention time of 667 s.
`O=C(c1cc(-c2ccncc2)n[nH]1)N1CCC(C(=O)N2CCN(C(=O)c3ccco3)CC2)CC1` gave an RP-LC retention time of 566 s.
For `CN1C(=O)c2cc(C(=O)N3CCCCCC3)nn2CC1(C)C(=O)NC1CCCC1` (centres undefined), the RP-LC retention time was 714 s.
`COc1cc(CCC(=O)N2C[C@@H](C(N)=O)[C@H](c3n[nH]c(C)n3)C2)on1` gave an RP-LC retention time of 566 s.
`CCCNC(=O)c1cn(-c2cc(-c3nc(C4CC4)no3)ccn2)cn1` gave an RP-LC retention time of 818 s.
For `CCCn1ccc2sc(C)c(C(=O)NCc3cc(C)ccc3C)c2c1=O`, the RP-LC retention time was 1020 s.
`O=c1c2ccccc2n(Cc2nc(-c3ccccc3)no2)c(=O)n1CC1CCCO1` (centres undefined) showed an RP-LC retention time of 978 s.
In the case of `Cc1cccc(C)c1NC(=O)C1CCCN(c2nc3c(s2)c(C)nn3-c2cccc(F)c2)C1` (centres undefined), the RP-LC retention time is reported as 1230 s.
Compound `Cc1cc(NC(=O)C2CC2)nn1Cc1ccccc1` has an RP-LC retention time of 746 s.
Work on `COc1ccc2[nH]c(=O)c(CCC(=O)NCc3cccc(OC)c3OC)cc2c1` yielded an RP-LC retention time of 694 s.
Work on `O=C(NCc1ccc(F)c(Cl)c1)c1csc(C(=O)NC2CCCC2)n1` yielded an RP-LC retention time of 976 s.
`CC(=O)N1c2ccc(S(=O)(=O)N3CCCCC3)cc2CC1C(=O)Nc1ccc(C)cc1C` (centres undefined) gave an RP-LC retention time of 868 s.
For `O=S(=O)(c1cccc(F)c1)N1CC(c2noc(C3CCCN3CC3CC3)n2)C1` (centres undefined), the RP-LC retention time was 676 s.
`O=C1CC(NC(=O)c2cc(-c3ccc(F)cc3)n[nH]2)CN1` (centres undefined) showed an RP-LC retention time of 604 s.
`CCCN1C(=O)c2c(C(=O)NCc3ccc(OC(C)C)cc3)ncn2CC1(C)C(=O)NC1CCCC1` (centres undefined) gave an RP-LC retention time of 923 s.
For `c1ccc(-c2ccc(CNCCc3c[nH]c4ccccc34)o2)cc1`, the RP-LC retention time was 735 s.
With `Cc1ncsc1CN1CC(c2ncc(C)n2Cc2ccccc2)C1` the RP-LC retention time was 559 s.
Work on `COc1ccc(NC(=O)Cn2c(C)cc(-c3nnc(-c4ccc(F)cc4)o3)c2C)cc1F` yielded an RP-LC retention time of 962 s.
`COc1ccc(-c2ccnc3nc(C(C)C)nn23)c(F)c1` showed an RP-LC retention time of 840 s.
`CCOC(=O)C1CCN(C(=O)c2ccc3c(c2)NC(=O)C2CCCCN32)CC1` (centres undefined) gave an RP-LC retention time of 554 s.
Work on `CC1CCN(S(=O)(=O)c2ccc(-c3nnc(C(=O)NCCN(C)C)o3)cc2)CC1` yielded an RP-LC retention time of 670 s.
Compound `COC(=O)c1ccc2c(=O)n(-c3cccc(Cl)c3)c(N3CCC(C(N)=O)CC3)nc2c1` has an RP-LC retention time of 781 s.
`CCCNC(=O)c1ccc2c(=O)n(Cc3ccccc3)c(N3CCCC3)nc2c1` showed an RP-LC retention time of 719 s.
With `CC(=O)c1ccc(NC(=O)Cn2cc(-c3ccccc3)c3ncn(C4CC4)c(=O)c32)cc1` the RP-LC retention time was 846 s.
`CCN(CC)C(=O)c1c(C)oc2ccn(Cc3ccc(F)cc3)c(=O)c12` showed an RP-LC retention time of 787 s.
`N#Cc1cccc(NC(=O)Cn2cccc(-c3nc(-c4ccc(Cl)cc4)no3)c2=O)c1` showed an RP-LC retention time of 926 s.
Compound `O=c1c2sccc2n(Cc2nc(-c3ccccc3)no2)c(=O)n1-c1ccc(F)cc1` has an RP-LC retention time of 969 s.
In the case of `CCOC(=O)Cn1nc2ccc(S(=O)(=O)N3CCSCC3)cn2c1=O`, the RP-LC retention time is reported as 765 s.
In the case of `CCn1ncc(NC(=O)c2ccc(Br)cc2)c(N2CCOCC2)c1=O`, the RP-LC retention time is reported as 884 s.
